In experiment [1] the target is Serine/threonine-protein kinase mTOR (Homo sapiens) (UniProt P42345). The experiment can be described thus: Inhibition of FRAP ATP labeling site in human Huh-7 cell lysate at 1 uM by KiNativ Profiling analysis relative to control. In kind it is subcellular.
Experiment [2] has as its target Calcium/calmodulin-dependent protein kinase type 1 (Homo sapiens) (UniProt Q14012). The experiment can be described thus: Inhibition of CaMK1a Lys1 labeling site in human Huh-7 cells at 1 uM by KiNativ Profiling analysis relative to control. In kind it is cell-based.
Experiment [3] addresses T1, Phosphatidylinositol 5-phosphate 4-kinase type-2 alpha (Homo sapiens) (UniProt P48426).
T1 sequence (whole entry): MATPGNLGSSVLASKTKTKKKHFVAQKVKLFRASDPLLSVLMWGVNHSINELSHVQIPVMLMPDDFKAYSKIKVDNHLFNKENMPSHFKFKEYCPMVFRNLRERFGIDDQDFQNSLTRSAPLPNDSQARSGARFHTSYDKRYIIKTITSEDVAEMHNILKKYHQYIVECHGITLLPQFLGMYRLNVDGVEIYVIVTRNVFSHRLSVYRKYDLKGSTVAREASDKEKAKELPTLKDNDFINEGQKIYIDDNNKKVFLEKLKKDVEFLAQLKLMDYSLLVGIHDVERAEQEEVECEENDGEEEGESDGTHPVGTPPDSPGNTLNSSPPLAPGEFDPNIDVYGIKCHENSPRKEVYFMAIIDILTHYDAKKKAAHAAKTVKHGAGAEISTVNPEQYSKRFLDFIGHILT
Nature of the experiment: Inhibition of PIP4K2A ATP labeling site harbouring AKELPTLKDNDFINEGQK in human Huh-7 cells at 1 uM by KiNativ Profiling analysis relative to control. In kind it is cell-based.

Experiment [4] has as its target Serine/threonine-protein kinase 38-like (Homo sapiens) (UniProt Q9Y2H1). The experiment can be described thus: Inhibition of NDR2 Lys1 labeling site harbouring DTGHIYAMKILR in human A-375 cells at 5 uM by KiNativ Profiling analysis relative to control. Type of experiment: cell-based.
Experiment [5] addresses Ephrin type-A receptor 3 (Homo sapiens) (UniProt P29320). The experiment can be described thus: Inhibition of EPHA3 (unknown origin) at 1 uM by Ambit Kinomescan binding assay relative to control; values are per cent of control.
Experiment [6] has as its system Epidermal growth factor receptor (Homo sapiens), P00533 [L858R]. The experiment can be described thus: Inhibition of EGFR L858R mutant (unknown origin) at 10 uM by Ambit Kinomescan binding assay relative to control.
The target of experiment [7] is Serine/threonine-protein kinase PLK4 (Homo sapiens) (UniProt O00444). Nature of the experiment: Inhibition of PLK4 (unknown origin) at 10 uM by Ambit Kinomescan binding assay.
Experiment [8] concerns the target Dual specificity mitogen-activated protein kinase kinase 1 (Homo sapiens) (UniProt Q02750). The experiment can be described thus: Inhibition of MAP2K1 Lys1 labeling site in human A-375 cells at 5 uM by KiNativ Profiling analysis relative to control. Type of experiment: cell-based.
The target of experiment [9] is T2, Inhibitor of nuclear factor kappa-B kinase subunit epsilon (Homo sapiens) (UniProt Q14164).
T2 sequence (whole entry): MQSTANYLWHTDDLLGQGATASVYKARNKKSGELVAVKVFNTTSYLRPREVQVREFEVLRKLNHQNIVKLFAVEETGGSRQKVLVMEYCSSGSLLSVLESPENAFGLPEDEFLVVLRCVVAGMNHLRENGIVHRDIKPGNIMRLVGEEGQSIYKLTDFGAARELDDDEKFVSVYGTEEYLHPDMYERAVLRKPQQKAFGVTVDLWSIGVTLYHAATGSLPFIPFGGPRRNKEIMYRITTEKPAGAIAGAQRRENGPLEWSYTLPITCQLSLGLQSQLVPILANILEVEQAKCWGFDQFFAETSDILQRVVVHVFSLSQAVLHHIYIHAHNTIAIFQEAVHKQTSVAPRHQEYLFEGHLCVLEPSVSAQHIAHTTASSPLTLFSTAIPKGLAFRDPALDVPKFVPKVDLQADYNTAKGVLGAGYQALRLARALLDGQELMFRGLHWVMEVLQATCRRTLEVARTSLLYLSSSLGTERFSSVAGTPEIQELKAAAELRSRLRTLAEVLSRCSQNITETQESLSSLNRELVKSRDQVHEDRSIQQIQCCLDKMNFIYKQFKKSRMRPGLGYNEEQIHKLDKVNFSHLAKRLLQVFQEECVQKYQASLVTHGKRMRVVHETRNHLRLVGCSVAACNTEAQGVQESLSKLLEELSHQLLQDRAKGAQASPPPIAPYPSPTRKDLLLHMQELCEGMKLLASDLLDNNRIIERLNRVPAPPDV
Nature of the experiment: Inhibition of IKKe Lys1 labeling site in human A-375 cells at 0.05 uM by KiNativ Profiling analysis relative to control. In kind it is cell-based.

The target of experiment [10] is Tyrosine-protein kinase JAK1 (Homo sapiens) (UniProt P23458). The experiment can be described thus: Inhibition of JAK1 Domain 2 ACT labeling site in human Huh-7 cells at 10 uM by KiNativ Profiling analysis relative to control. In kind it is cell-based.
Experiment [11] addresses RPS6KA1/RPS6KA2/RPS6KA3 (Homo sapiens) (UniProt P51812+Q15349+Q15418). Nature of the experiment: Inhibition of RSK1/2/3 Domain 1 K2 labeling site harbouring DLKPENILLDEEGHIK in human Huh-7 cells at 10 uM by KiNativ Profiling analysis relative to control. In kind it is cell-based.
For experiment [12], the target named is Microtubule-associated serine/threonine-protein kinase 1 (Homo sapiens) (UniProt Q9Y2H9). Nature of the experiment: Inhibition of MAST1 Lys2 labeling site in human A-375 cells at 5 uM by KiNativ Profiling analysis relative to control.

Among the data in ChEMBL document CHEMBL5696442, “Discovery of type II inhibitors of TGFβ-activated kinase 1 (TAK1) and mitogen-activated protein kinase kinase kinase kinase 2 (MAP4K2)” (J Med Chem, 2015) are inhibition and residual activity values, retold here.

Molecules are shown by their SMILES. Calls of active or inactive are those of the source. The calls are words filed in the database; no cut-off is given here.

As a reminder, the inhibition is the drop in the measured response relative to a control, in per cent. As a reminder, the residual activity is the signal under treatment as a percentage of the control signal. Low readings indicate little activity left, high ones much activity left.

Chain of Serine/threonine-protein kinase PLK4 (Homo sapiens) (O00444 whole entry): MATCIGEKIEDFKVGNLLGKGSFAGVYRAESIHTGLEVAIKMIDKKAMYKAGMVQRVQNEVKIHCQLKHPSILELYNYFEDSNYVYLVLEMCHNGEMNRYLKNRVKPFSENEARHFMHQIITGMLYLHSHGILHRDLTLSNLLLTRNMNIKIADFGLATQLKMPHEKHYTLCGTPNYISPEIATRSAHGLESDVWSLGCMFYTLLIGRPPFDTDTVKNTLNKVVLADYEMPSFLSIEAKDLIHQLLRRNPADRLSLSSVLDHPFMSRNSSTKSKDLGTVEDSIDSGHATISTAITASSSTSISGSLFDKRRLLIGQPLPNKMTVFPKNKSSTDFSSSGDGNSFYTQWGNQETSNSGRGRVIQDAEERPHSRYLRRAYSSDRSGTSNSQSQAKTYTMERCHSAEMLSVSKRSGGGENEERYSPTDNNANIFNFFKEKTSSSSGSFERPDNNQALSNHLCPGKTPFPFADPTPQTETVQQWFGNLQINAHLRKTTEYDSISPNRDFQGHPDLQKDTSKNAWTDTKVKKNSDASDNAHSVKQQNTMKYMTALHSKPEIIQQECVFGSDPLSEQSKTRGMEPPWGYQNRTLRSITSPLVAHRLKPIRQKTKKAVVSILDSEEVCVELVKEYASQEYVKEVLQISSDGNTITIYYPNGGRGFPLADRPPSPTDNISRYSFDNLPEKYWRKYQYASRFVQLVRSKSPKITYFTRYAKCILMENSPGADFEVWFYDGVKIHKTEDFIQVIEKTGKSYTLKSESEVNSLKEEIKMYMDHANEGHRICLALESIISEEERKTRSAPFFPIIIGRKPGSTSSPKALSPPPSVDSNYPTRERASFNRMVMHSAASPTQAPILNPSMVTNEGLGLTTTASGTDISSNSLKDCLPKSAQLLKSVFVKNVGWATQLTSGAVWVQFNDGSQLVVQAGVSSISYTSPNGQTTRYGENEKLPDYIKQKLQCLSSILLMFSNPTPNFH
Chain of Epidermal growth factor receptor (Homo sapiens), P00533 [L858R] (P00533 whole entry L858R): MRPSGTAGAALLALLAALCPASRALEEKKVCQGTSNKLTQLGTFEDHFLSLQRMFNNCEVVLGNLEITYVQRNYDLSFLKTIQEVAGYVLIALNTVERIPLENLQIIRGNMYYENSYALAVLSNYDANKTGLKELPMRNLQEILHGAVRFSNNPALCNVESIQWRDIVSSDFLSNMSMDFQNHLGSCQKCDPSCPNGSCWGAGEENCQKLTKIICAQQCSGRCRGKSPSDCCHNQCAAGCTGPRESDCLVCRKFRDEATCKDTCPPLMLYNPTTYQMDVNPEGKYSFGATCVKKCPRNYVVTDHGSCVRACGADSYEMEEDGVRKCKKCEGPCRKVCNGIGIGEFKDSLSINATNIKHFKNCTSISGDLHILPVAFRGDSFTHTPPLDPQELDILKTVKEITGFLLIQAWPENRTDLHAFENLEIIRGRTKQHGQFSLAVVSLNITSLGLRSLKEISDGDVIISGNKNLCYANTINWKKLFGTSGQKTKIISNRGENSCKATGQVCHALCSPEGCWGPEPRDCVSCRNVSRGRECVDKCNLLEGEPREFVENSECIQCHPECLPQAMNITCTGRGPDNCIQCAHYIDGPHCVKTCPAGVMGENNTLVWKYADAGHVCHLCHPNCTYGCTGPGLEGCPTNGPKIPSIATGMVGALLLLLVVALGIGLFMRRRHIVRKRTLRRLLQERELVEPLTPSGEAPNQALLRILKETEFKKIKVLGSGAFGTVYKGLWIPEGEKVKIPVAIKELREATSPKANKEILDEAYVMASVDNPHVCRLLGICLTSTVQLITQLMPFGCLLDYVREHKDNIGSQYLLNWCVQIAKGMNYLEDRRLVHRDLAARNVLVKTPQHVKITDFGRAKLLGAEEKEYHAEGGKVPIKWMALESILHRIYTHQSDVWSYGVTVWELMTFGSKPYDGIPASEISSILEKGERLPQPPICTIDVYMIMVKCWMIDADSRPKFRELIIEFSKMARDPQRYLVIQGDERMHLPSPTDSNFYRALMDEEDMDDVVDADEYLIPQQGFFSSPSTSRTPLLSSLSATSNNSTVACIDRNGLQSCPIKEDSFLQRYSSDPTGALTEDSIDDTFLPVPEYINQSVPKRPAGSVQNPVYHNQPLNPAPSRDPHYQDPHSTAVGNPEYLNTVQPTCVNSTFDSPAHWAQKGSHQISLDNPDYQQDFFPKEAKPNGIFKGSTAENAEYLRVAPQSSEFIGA
Chain of Dual specificity mitogen-activated protein kinase kinase 1 (Homo sapiens) (Q02750 whole entry): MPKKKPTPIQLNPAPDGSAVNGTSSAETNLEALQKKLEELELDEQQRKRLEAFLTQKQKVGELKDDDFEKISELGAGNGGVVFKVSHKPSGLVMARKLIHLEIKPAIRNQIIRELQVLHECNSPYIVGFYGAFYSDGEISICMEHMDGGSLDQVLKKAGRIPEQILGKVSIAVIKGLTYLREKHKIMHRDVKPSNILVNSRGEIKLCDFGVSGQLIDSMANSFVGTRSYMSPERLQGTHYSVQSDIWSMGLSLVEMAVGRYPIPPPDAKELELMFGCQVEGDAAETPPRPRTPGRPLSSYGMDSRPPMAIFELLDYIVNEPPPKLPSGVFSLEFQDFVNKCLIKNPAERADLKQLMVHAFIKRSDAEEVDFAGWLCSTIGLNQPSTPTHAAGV
Chain of RPS6KA1/RPS6KA2/RPS6KA3 (Homo sapiens) (P51812 whole entry, looked up): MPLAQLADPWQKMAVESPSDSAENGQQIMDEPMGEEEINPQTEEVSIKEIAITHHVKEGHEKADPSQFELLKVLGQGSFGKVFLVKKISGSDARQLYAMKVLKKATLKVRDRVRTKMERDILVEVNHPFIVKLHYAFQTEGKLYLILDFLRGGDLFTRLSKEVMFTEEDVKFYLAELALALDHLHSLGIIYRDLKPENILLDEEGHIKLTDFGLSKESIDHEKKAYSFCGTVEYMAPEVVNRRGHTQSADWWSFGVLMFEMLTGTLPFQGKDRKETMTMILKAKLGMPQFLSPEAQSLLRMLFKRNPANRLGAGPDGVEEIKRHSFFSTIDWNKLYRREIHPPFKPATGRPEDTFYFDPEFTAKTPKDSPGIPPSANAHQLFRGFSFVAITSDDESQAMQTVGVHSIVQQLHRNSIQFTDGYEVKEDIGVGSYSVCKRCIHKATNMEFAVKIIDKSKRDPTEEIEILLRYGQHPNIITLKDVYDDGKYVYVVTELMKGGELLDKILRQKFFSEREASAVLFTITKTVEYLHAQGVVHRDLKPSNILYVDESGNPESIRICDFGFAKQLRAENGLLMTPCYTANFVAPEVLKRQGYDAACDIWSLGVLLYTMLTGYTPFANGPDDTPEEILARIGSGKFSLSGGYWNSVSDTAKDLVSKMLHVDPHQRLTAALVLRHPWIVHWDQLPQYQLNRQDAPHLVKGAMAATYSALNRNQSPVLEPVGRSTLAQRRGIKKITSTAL
Chain of RPS6KA1/RPS6KA2/RPS6KA3 (Homo sapiens) (Q15349 whole entry, looked up): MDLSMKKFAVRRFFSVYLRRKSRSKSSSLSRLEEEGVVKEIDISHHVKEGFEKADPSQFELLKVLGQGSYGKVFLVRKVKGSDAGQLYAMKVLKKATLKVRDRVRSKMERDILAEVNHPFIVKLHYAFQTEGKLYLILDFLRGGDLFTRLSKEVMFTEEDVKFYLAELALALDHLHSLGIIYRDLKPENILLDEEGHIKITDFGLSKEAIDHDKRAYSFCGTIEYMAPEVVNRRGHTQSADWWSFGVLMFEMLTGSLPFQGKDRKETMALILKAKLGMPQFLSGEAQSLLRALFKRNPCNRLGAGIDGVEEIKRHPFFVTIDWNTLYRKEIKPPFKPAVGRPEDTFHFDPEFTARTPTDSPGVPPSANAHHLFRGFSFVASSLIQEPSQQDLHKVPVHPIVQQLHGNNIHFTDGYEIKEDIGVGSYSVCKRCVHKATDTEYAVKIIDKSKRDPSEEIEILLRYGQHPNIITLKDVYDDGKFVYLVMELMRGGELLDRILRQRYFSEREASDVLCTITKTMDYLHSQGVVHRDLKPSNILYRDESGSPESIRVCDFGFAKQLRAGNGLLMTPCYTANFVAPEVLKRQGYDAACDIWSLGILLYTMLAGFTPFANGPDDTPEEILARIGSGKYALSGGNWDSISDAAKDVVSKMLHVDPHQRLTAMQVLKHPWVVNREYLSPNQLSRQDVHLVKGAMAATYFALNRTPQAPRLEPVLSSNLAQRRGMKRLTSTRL
Chain of RPS6KA1/RPS6KA2/RPS6KA3 (Homo sapiens) (Q15418 whole entry, looked up): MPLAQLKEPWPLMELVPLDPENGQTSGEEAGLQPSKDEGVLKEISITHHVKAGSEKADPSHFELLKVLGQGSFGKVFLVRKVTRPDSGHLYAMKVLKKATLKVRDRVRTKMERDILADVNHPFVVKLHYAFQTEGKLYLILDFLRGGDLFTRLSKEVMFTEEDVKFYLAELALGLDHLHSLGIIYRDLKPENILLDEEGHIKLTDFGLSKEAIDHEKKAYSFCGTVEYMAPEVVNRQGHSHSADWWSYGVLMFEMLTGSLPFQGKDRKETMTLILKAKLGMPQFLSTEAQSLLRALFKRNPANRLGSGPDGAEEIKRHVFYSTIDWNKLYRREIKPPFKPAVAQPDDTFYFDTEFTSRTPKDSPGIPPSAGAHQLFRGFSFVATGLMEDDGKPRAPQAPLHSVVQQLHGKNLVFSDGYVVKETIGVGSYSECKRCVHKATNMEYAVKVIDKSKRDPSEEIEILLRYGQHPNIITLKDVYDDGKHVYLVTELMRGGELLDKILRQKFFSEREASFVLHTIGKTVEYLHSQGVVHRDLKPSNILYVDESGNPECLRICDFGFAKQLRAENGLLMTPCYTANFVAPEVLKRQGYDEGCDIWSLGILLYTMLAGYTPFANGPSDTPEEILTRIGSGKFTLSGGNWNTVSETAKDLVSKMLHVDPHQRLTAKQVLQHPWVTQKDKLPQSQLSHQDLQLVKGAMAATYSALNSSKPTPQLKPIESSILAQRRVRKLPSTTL

Consider `CNc1cc(Oc2cc(C(=O)Nc3cc(N4CCN(C)CC4)cc(C(F)(F)F)c3)ccc2C)ncn1`, for which the inhibition in experiment [1] was -1.8%; in experiment [2], 3.6%; in experiment [3], 13.4%.
`CCN1CCN(Cc2ccc(NC(=O)c3ccc(C)c(/C=C/c4cnc5[nH]ccc5c4OC)c3)cc2C(F)(F)F)CC1`: the inhibition in [4] came out at 20.7%. Besides, the residual activity in experiment [5] amounted to 5.7%.
In the case of `CCN1CCN(Cc2ccc(NC(=O)c3ccc(C)c(Oc4ccnc5[nH]ccc45)c3)cc2C(F)(F)F)CC1`, the inhibition is 14% in experiment [6]; 1.3% in experiment [8]; -3.7% in experiment [9]; 41.1% in experiment [10]; 8.7% in [11]; -6.1% in [12]. For the same compound, in experiment [7], the inhibition result was “inactive”.
